Paper PMC3709979 (PLoS ONE, 2013)
Several values for one entry are separate records, joined by “and”; a condition that tells them apart may be missing. Equal values may be shown once. Entries after “also recorded” stand apart in the source; their conditions may differ. Read-outs that look alike come from different tables or passages of the source.

Key:
[1] = tested on: estrogen-responsive alkaline phosphatase in Ishikawa cells; assay: Induction of estrogen-responsive alkaline phosphatase (AP) in Ishikawa cells; settings: 96 h; for EC50: Homo sapiens, Ishikawa
Experimental: Ishikawa cells (5×10^4 cells/well) were pre-incubated in 96 well plates in estrogen-free medium for 24 h. Test samples dissolved in DMSO, were added at different concentrations and the DMSO concentration was kept lower than 0.1%. […] Plates were incubated at 37°C for 96 h. […] The maximum slope of the kinetic curve for every experiment well was calculated.

[2] = molecular target: T1, human recombinant ERβ (Homo sapiens, UniProt Q92731); parameters: purchased Invitrogen (Grand Island, NY); method as in J. Agric. Food Chem. 2005, 53, 6246–6253; settings: read-out: IC50 ERβ; isolated compounds; ref J. Agric. Food Chem. 2005, 53, 6246–6253; cited from earlier work
T1 sequence (Q92731 whole entry): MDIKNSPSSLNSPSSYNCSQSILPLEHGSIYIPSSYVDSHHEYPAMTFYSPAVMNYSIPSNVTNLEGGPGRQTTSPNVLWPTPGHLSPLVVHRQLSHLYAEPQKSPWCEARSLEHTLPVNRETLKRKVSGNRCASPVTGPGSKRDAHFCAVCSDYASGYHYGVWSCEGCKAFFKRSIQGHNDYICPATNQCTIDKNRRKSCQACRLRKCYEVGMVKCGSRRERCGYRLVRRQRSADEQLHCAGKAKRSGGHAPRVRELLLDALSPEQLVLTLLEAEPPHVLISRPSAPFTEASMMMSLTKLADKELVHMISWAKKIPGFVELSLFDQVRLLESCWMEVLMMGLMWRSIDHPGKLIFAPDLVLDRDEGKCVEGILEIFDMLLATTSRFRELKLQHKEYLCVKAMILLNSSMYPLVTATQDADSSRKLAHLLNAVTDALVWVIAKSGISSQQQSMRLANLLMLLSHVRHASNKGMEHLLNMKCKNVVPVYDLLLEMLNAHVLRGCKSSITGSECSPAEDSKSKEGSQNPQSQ

[3] = tested on: estrogen responsive element (ERE)-luciferase in MCF-7 cells; assay: ERE-luciferase induction in MCF-7 cells; type: cell-based; settings: 24 h; for ERE-luciferase induction in MCF-7 cells (in words): isolated compounds tested at 0.1 µM and 1 µM
Experimental: The Dual-Luciferase Reporter Assay System protocol from Promega (Madison, WI) was used to evaluate the activation of ERs through interaction with ERE at the promoter of estrogen responsive genes, resulting in the expression of the fused luciferase reporter. Briefly, MCF-7 cells grown in phenol-red free medium for 48 h, were trypsinized and re-suspended in serum-free medium at 1×10^7 cells/mL followed by a 10 min incubation at room temperature with pERE (3 µg/mL) obtained from Dr. V. C. Jordan, Northwestern University, and pRL-TK (Promega) (1 µg/mL) in a 4 mm gap cuvette before electroporation at 950 µF and 250 V using the Gene Pulser Xcell (BioRad Laboratories, Hercules, CA). Transfected cells were diluted in serum containing medium and plated in 24-well plates (2×10^5 cells/well). After 24 h, the cells were washed with PBS and treated with two concentrations of the crude extracts (2 µg/mL and 10 µg/mL) and two concentrations of the isolated compounds (0.1 µM and 1 µM), for an additional 24 h. […] Cell lysates (20 µL) were placed in white Costar 96-well plates, before the injection of Luciferase Assay reagent (100 µL) followed by a 12 s read by a FLUOstar OPTIMA (BMG Lab Tech, Offenburg, Germany). To quench the firefly luciferase expression and activation of the renilla expression, Stop & Glo reagent (100 µL) was injected followed by a 12 s read. In order to exclude the errors in transfection efficiency, average read out of the luciferase activity was normalized to the average associated pRL-TK read outs (renilla activity). The results were converted into fold induction by normalizing to DMSO.

[4] = molecular target: T1, human recombinant ERβ; assay: biochemical
Experimental: (§1) To correct for non-specific binding, a control containing all the added components except for the hot mix was considered. The incubation was carried out at room temperature for 2 h before 100 µL of 50% hydroxyapatite slurry (HAPS) was added. The tubes were incubated on ice for 15 min with vortexing every 5 min. The appropriate ER wash buffer was added (1 mL), and the tubes were vortexed before centrifuging at 10000×g for 5 min. The supernatant was discarded, and this wash step was repeated three times. The HAPS pellet containing the ligand-receptor complex was re-suspended in 200 µL of ethanol and transferred to scintillation vials. An additional 200 µL of ethanol was used to rinse the centrifuge tube.

[5] = tested on: Tff1 mRNA in T47D cells; assay: Tff1 mRNA induction in T47D cells (qRT-PCR); type: cell-based; settings: 8-PN 100 nM, LigF 5 µM, LigC 5 µM, 6 h, relative to DMSO
Experimental: Quantitative real-time polymerase chain reaction (qRT-PCR) was used to examine the modulation of the Tff1 induction following treatment of T47D cells with the extracts and the related compounds. Experiments were performed four independent times in triplicates. T47D cells (4×10^4 cells/mL) were preincubated in estrogen-free media for 72 h. […] Total RNA was isolated using the TRIzol Plus RNA purification kit (Invitrogen) and quantitated by UV analysis at 260 nm. cDNA synthesis was performed using qScript cDNA synthesis kit (Quanta Biosceiences) in a total volume of […], containing 4 µL qScript reaction mixture (5X), 1 µL qScript RT, 10 µL nuclease-free water, and 5 µL of RNA sample. The reaction was carried out for 5 min at 22°C, followed by 42°C for 30 min and a 5 min incubation step at 85°C. The PCR and subsequent analyses were performed using the ABI StepOne Plus RT-PCR system (Applied Biosystems). Quantitation was performed using the TaqMan technology of Applied Biosystems. Tff1 was evaluated using a predeveloped gene expression primer/probe set (Applied Biosystems' Assay on Demand). Briefly, the PCR reaction mixture was prepared in a total volume of 20 µL, containing 1 µL 20X TagMan Gene Expression Assay, 10 µL 2X TaqMan Gene Expression Master Mix, 4 µL cDNA template, and 5 µL RNase-free water. The reaction mixture was incubated at 50°C for 2 min followed by 10 min at 95°C. Polymerase chain reactions were performed in triplicate and consisted of 40 cycles with 15 s denaturing step at 95°C and 1 min annealing/extending step at 60°C each. The fluorescence signal was measured during the last 30 s of the annealing/extension phase. Following analysis, a fluorescence threshold value was set and threshold cycle (Ct) values were determined. […] The final results were expressed as a fold induction, where the levels of Tff1 observed in the DMSO-treated samples was defined as one.

[6] = tested on: Ishikawa cells; assay: Cytotoxicity in cell culture assays; type: cell-based; settings: AP assay, reduction in the estrogenic response
From the text: The Ishikawa cell line was provided by Dr. R. B. Hochberg (Yale University, New Haven, CT) and was maintained in Dulbecco's Modified Eagle Medium (DMEM/F12) containing 1% sodium pyruvate, 1% nonessential amino acids (NEAA), 1% glutamax-1, 0.05% insulin, and 10% heat-inactivated FBS [32], [33], [34]. […] Two days before treating the cells, the medium was replaced with phenol red-free DMEM/F12 medium containing charcoal/dextran-stripped FBS and supplements. […] However, alkaline phosphatase was not inducible in ECC1 cells obtained from ATCC. Despite this controversy, we will keep the conventional name, Ishikawa, for this cell line throughout this paper. The MCF-7 cell line was purchased from ATCC. […] Two days prior to treating the cells, the medium was replaced with phenol red-free RPMI 1640 medium containing charcoal/dextran-stripped FBS with acetone-washed activated charcoal (100mg/mL) at 4°C for 30 min and centrifuged at 4000 rpm for 15 min at 4°C. This step was repeated in triplicate. Extracts and compounds were not toxic to cells at the applied concentrations, under these experimental conditions. DMSO concentrations for all cell culture assays were below 0.1%.

[7] = molecular target: T2, ERα (Homo sapiens, UniProt P03372); assay: biochemical
T2 sequence (P03372 1-595): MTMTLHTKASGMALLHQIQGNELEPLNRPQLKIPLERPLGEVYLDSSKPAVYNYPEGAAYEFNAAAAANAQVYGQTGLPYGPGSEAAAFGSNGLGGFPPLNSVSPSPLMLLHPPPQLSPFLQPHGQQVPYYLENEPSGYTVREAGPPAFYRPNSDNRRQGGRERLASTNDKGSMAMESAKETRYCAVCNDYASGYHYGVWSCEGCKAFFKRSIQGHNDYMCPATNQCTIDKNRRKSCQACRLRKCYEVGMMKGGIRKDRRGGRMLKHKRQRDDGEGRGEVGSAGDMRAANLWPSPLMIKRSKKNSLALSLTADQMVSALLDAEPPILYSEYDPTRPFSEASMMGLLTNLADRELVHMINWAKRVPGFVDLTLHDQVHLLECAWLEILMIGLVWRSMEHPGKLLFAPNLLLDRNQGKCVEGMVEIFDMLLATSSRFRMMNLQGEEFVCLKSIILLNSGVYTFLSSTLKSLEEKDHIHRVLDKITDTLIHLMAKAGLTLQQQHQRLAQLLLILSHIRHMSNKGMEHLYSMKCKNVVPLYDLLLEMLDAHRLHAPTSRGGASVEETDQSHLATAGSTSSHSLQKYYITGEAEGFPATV
Experimental: as §1

[8] = Isomerization of isoliquiritigenin to liquiritigenin under bioassay conditions (LC-MS/LC-UV); type: physicochemical
Experimental: To evaluate this conversion and better define the compounds responsible for the observed estrogenic activity, LC-MS monitoring of the isomerization of these active principles in the cell-based assays was performed in parallel to every bioassay. One set of plates was considered for time 0, when there was no treatment and another set was considered for the final harvesting day for every experimental condition. The media exposed to cells were collected and extracted by adding sodium acetate buffer (100 mM, pH 5), followed by liquid-liquid extraction by water-saturated ethyl acetate.

[9] = molecular target: T2, ERα
Experimental: as §1

[10] = molecular target: T2, ERα; assay: Pulsed ultrafiltration LC-MS screening for ERα ligands; type: binding; parameters: purchased Invitrogen (Grand Island, NY); settings: crude MeOH extract 150 µg/ml, 1 h room temperature, denatured ER control
Experimental: A screening assay based on ultrafiltration mass spectrometry was used to identify the ligands of ER present in licorice crude extracts. Briefly, 150 µg/ml of the methanol crude extract was incubated for 1 h at room temperature with 50 pmol of ERα or ERβ in binding buffer consisting of 50 mM Tris-HCl (pH 7.5), 10% glycerol, 50 mM KCl, and 1 mM ethylenediaminetetraacetic acid (EDTA) in a total volume of 50 µL. Identical control incubations in which denatured ER was substituted for active ER was used to correct for nonspecific binding of compounds to the ultrafiltration membrane and holder. After incubation, each mixture was filtered through a Microcon (Millipore, Bedford, MA) YM-30 centrifugal filter containing a regenerated cellulose ultrafiltration membrane with a 30000 MW cutoff and washed three times with 200 µL aliquots of ammonium acetate buffer (pH 7.5) at 4°C to remove the unbound compounds. The bound ligands were released by adding 400 µL of methanol/water (90∶10; v/v) followed by centrifugation at 10000×g for 10 min. […] Aliquots (10 µL) were analyzed using LC-MS, which consisted of a reverse phase separation on a Shimadzu (Kyoto, Japan) Shim-Pack XR-ODS III C18 (1.6 µm, 2.0 mm ×50 mm) column and mass spectrometric analysis on a Shimadzu LCMS- IT-TOF mass spectrometer. […]

[11] = read-out: AP induction Ishikawa cells EC50

CC(C)=CCc1c(O)cc(O)c2c1O[C@H](c1ccc(O)cc1)CC2=O [8-PN, 8-prenylnaringenin]
EC50 ([1]; read-out: AP induction Ishikawa cells EC50, as given in text, 96 h): 6.6 nM | EC50 ([1]; read-out: AP induction Ishikawa cells EC50, isolated compounds, 96 h, n = 9): 6.65 ± 1.4 nM | IC50 [2]: 1700 ± 100 nM | ERE-luciferase induction in MCF-7 cells (in words) [3]: showed induction of ERE-luciferase

C[C@]12CC[C@@H]3c4ccc(O)cc4CC[C@H]3[C@@H]1CC[C@@H]2O [17β-estradiol, reference compound]
EC50 [1, 11]: 0.19 ± 0.05 nM

O=C(/C=C/c1ccc(O)cc1)c1ccc(O)cc1O [LigC, isoliquiritigenin]
EC50 [1, 11]: 2700 ± 200 nM | IC50 [4]: 7800 ± 100 nM | Tff1 mRNA induction in T47D cells [5]: induced Tff1, significantly | concentrations with cytotoxic effects [6]: above 7.5 µM | IC50 [7]: 16000 ± 1000 nM | isomerization of LigC to LigF ([8]; ER binding buffer, 2 h at room temperature, LC-UV): did not show any isomerization of LigC to LigF; also recorded: did not show a conversion of LigC to LigF | isomerization of LigC to LigF ([8]; cell media of AP assay, 96 h with Ishikawa cells at 37°C, LC-MS): significant reduction in the LigC content and a corresponding increase in LigF formation; also recorded: mostly converted to LigF | isomerization of LigC to LigF ([8]; cell media of mRNA induction assay, 6 h with T47D cells at 37°C, LC-MS): did not show a significant formation of LigF from LigC; also recorded: the conversion was limited

O=C1C[C@@H](c2ccc(O)cc2)Oc2cc(O)ccc21 [LigF, liquiritigenin]
EC50 [1, 11]: 3400 ± 400 nM | Maximum AP fold induction Ishikawa cells ([1]; maximum efficacy): 83 fold and 83.1±3.4 fold | Tff1 mRNA induction in T47D cells [5]: lower than that of 8-PN (0.1 µM), but the difference was not significant | IC50 [7]: > 200000 nM | IC50 ERα [9]: very weak affinity for ERα | fold induction at 0.1 µM ([3]; Homo sapiens, MCF7, isolated compounds at 100 nM, DMSO set to 1): 2.1 ± 0.4 | ERE-luciferase induction in MCF-7 cells (in words) [3]: showed induction of ERE-luciferase | binding to ERα in PUF-MS screening [10]: bound to ERα and ERβ

COc1cc(O)c(CC=C(C)C)c(O)c1C(=O)/C=C/c1ccc(O)cc1 [XH, xanthohumol]
AP induction Ishikawa cells EC50 ([1]; isolated compounds, n = 9): inactive | Tff1 mRNA induction in T47D cells [5]: no Tff1 activity | ERE-luciferase induction in MCF-7 cells (in words) [3]: did not show any induction of ERE-luciferase
